Measured values published in US9649324B2, “Use of tylvalosin as antiviral agent” (ECO ANIMAL HEALTH LIMITED, priority 2006, dated 2017).

Columns and labels:
HRT-18 cells = assay: Intracellular accumulation of macrolides in HRT-18 cells; type: in vitro ADME, human; conditions: for average intracellular concentration / intracellular:extracellular ratio: 10 μg/mL antibiotic
Procedure: HRT-18 cells, in 6 cm tissue cultures dishes, were incubated in the presence of 0.5, 5 or 50 μg/mL tylvalosin. After 4 h, two dishes for each tylvalosin concentration and two dishes without antibiotic were removed from the incubator. A sample of medium (about 1 mL) was removed, placed in a labelled Eppendorf tube and stored at −20° C. The rest of the medium was then removed. Each of the cell monolayers was washed twice in PBS, using approximately 5 mL for each wash. The plunger from a 2 mL plastic syringe was used to gently scrape off the cells. PBS (500 μL) was added to the dish and the cells gently removed into this medium, using a micropipette. The sample was then placed in an Eppendorf tube and centrifuged at 8000×g in a bench centrifuge (Biofuge pico, Heraeus instruments) for 13 sec. An obvious cell pellet formed. The supernatant was removed using a micropipette and the cell material was stored at −20° C. in a labelled Eppendorf tube. After approximately 24 h the remaining tissue culture dishes were removed from the incubator and treated as described above for the 4 h samples. All the samples, including the 4 h samples, were then stored at −70° C.
HRT-18 cells were prepared as described above and used at passage 42. Stock solutions of antibiotics (either tylvalosin, tylosin or tilmicosin) were diluted in growth media and 10 μg/mL each antibiotic was added to the confluent cell monolayers. The cells were incubated at 37° C. in a 5% CO2 atmosphere for either 4 h or 24 h. The media and cells were harvested and tested for antibiotic, as described above.
(§1) All the supernatant and cell samples were transported frozen (at approximately −20° C.) to York Bioanalytical Solutions (York, England) for analysis. Briefly, 0.25 g of buffer (RPMI medium containing 10% FCS) was weighed into a polypropylene tube. A 50 μL volume of the appropriate working solution was added to the quality control (QC) samples. Methanol (50 μL) was added to each blank sample used for preparation of calibration standards, recovery samples and reagent blanks. A 2.5 mL volume of 0.1 M phosphate buffer was added to each sample, vortex mixed for approximately 1 min and then centrifuged at 3220×g for 10 min at 4° C.
(§2) For the liquid-liquid clean-up phase, an aliquot (100 μL) of the supernatant was transferred to a polypropylene tube. The pH was adjusted to pH 8-8.5 by the addition of 0.1 M NaOH, and vortex mixed. Ethyl acetate (5 mL) was added and after capping, the whole mixture was shaken for 10 min and then centrifuged at 3220×g for 10 min at 4° C.
(§3) Ammonium acetate (20 mM; pH native)—formic acid, 1000:3, v/v (100 μL) was added to each well in a 2 mL polypropylene collection plate. An aliquot of the ethyl acetate mixture (100 μL) was transferred to the polypropylene collection plate and evaporated under nitrogen (40° C.) until the ethyl acetate was fully evaporated whilst the ammonium acetate remained. Methanol (100 μL) was added to each well, excluding the calibration standards.
(§4) To each well containing a calibration standard, 100 μL of the appropriate calibration working solution was added. Samples were then vortex mixed for at least 10 min and submitted for liquid chromatography with tandem mass spectrometric analysis. The method stated was applicable to the samples of media (and the calibration standards and quality control samples).
(§5) For the cells, the sample tubes were weighed, and 100 μL of acetonitrile was added. The samples were vortex mixed for 10 sec, then centrifuged at 10285×g at 4° C. for 5 min. The sample was transferred to a polypropylene tube. The original sample tube was washed with 0.1 M phosphate buffer (1 mL). This was transferred to the polypropylene tube. A second wash of 1 mL was made, then a final wash of 0.5 mL. The polypropylene tube was now at the same stage as the end of the liquid extraction, but with the cells present rather than media. This was then taken through the sample preparation as described above. […]

LLC-PK1 cells = assay: Intracellular accumulation in pig kidney epithelial cells; type: in vitro ADME; conditions: LLC-PK1, 10 μg/mL
Procedure: LLC-PKI cells in 6 cm^2 plastic tissue culture dishes were incubated with 10 μg/mL of the different macrolides. Cells and medium were harvested as described above at 30, 75 and 120 min.
as §1, §2, §3, §4
For the cells, the sample tubes were weighed, and 100 μL of acetonitrile was added. The samples were vortex mixed for 10 sec, then centrifuged at 10285×g at 4° C. for 5 min. The sample was transferred to a polypropylene tube. The original sample tube was washed with 0.1 M phosphate buffer (1 mL). This was transferred to the polypropylene tube. A second wash of 1 mL was made, then a final wash of 0.5 mL. The polypropylene tube was now at the same stage as the end of the liquid extraction, but with the cells present rather than media. This was then taken through the sample preparation as described above. The original sample tubes were allowed to dry (i.e. any remaining solvent evaporated off) and were then reweighed to determine the weight of cells in the sample, to allow the concentration per gram of cells to be determined.

pig white blood cells = assay: Intracellular accumulation in pig white blood cells; type: in vitro ADME
Procedure: Pig blood was collected in Heparin-coated BD vacutainers (6). 20 mL of blood and 30 mL of phosphate buffered saline (PBS) were mixed in a 50 mL conical centrifuge tube. This was repeated in order to obtain 3 such tubes. The mixtures were centrifuged for 10 min at 2050×g. The white blood cells, together with some red blood cells below, were harvested into a 50 mL conical centrifuge tube. PBS was added to about 50 mL. A 63% solution of Percoll was made as follows: 6.3 mL Percoll (Sigma), 1.0 mL 1.5 M NaCl, 2.7 mL H2O. 10 mL of 63% Percoll was added to each of two 50 mL conical centrifuge tubes. 25 mL of the resuspended white blood cells were carefully layered on top of the each of the Percoll solutions. A sharp interface was produced. The material was centrifuged at 3000×g for 10 min. […] The white blood cells were harvested in PBS (50 mL) and centrifuged at 500×g for 10 min. The cell pellet was resuspended in medium (Glasgow minimum essential medium containing penicillin and streptomycin). A viable cell count was made using trypan blue. The same method used for isolation of pig WBCs was used for the chicken WBCs, with the exception that heparin (100 I.U./mL) was prepared and mixed with an equal volume of chicken whole blood.
Cells were incubated with 10 mg/mL of each antibiotic. All tubes were placed on a rotary mixing machine, at 37° C. Supernatant and cell samples were harvested at the times described in the figure legends. Duplicate samples were used for each antibiotic for each time point.
as §1, §2, §3, §4, §5

[1] = system: PR8 strain of influenza A virus; assay: Influenza infection of MDCK cells, immunofluorescence (Example 4), strain PR8; type: cell-based, human influenza; conditions: 1 μg/ml, 4 h pretreatment, moi 10, fixed 4 h post infection
influenza strain Udorn = assay: Influenza virus time course in MDCK cells, immunofluorescence and plaque assay (Example 12); type: cell-based
[2] = previous study (Tsuchiya et al., 1981); cited from earlier work

CCC1OC(=O)CC(OC(C)=O)C(C)C(OC2OC(C)C(OC3CC(C)(O)C(OC(=O)CC(C)C)C(C)O3)C(N(C)C)C2O)C(CC=O)CC(C)C(=O)C=CC(C)=CC1COC1OC(C)C(O)C(OC)C1OC (stereo not drawn) [tylvalosin, 3-O acetyl-4″-O-isovaleryltylosin]
average intracellular concentration (HRT-18 cells; HRT-18 cells, 4 h): 61.8 μg/mg cells | intracellular:extracellular ratio (HRT-18 cells; HRT-18 cells, 4 h): 5.13 fold | average intracellular concentration (HRT-18 cells; HRT-18 cells, 24 h): 57.6 μg/mg cells | intracellular:extracellular ratio (HRT-18 cells; HRT-18 cells, 24 h): 5.34 fold | concentration of tylvalosin accumulated in the cells (HRT-18 cells; HRT-18 cells, 0.5, 5 or 50 μg/mL tylvalosin, within 4 h): at least 585 μg | cell:medium concentration ratio (HRT-18 cells; HRT-18 cells, 24 h incubation, compared with 4 h): lower | average intracellular concentration (LLC-PK1 cells; 75 min): 53.95 μg/mg cells | intracellular:extracellular ratio (LLC-PK1 cells; 120 min): 8.9 | average intracellular concentration (pig white blood cells; 10 min): 57.4 μg/mg cells | average intracellular:extracellular ratio (IC:EC) (pig white blood cells; 10 min): 8.68 | average intracellular:extracellular ratio (IC:EC) (pig white blood cells; 10 min, listed as Tylvalosin): 9 | intracellular concentration (pig white blood cells; 20 min): 61.45 μg/mg cells | inhibition of infection of MDCK cells [1]: completely inhibited | influenza strain Udorn infection over the 24 hour period (immunofluorescence and plaque assay) (influenza strain Udorn): inhibited | lipophilicity [2]: more lipophilic than either tylosin or 3AT
